# From article PMC9289672, “Optimization of Antibacterial Activity in Tibetan Swine α-Helix Peptide TP by Site-Directed Mutagenesis” (Frontiers in Microbiology, 2022)
# Where no end group is shown, it is not given here.
# What was measured:
# [1] = tested on: hRBCs (human red blood cells)
# Experimental: The cytotoxicity of each peptide was assessed with IPEC-J12 and HEK 293T cells. […] Each trial was conducted two times in parallel. A total of three independent assays were carried out.
# all strains in Table 2 = experiment: Geometric mean of MIC and therapeutic index; format: cell-based; conditions: for Therapeutic index (TI) / selectivity index (SI), All: MHC/GM, 128 μm used when 50% hemolysis not observed at 128 μm
# Experimental: (§1) The bacteria were cultured overnight in the MHB medium and transferred to the new MHB the next day until the bacteria reached the exponential growth stage. The bacteria were diluted with MHB to 2 × 10^5 CFU/ml. About 50 μl of polypeptide and equal volume of bacterial suspension was added to a 96-well plate to give the final concentration of polypeptide between 1 and 128 μm. The last two columns are negative (MHB only) and positive (bacterial and MHB) controls and incubated at 37°C for 18–24 h. Optical density was measured at an absorbance wavelength of 492 nm using a microplate reader (Tecan GENios F129004, Tecan, Austria). At least three independent measurements were taken. Each trial was conducted two times in parallel. A total of three independent assays were carried out.
# Trp is a hydrophobic amino acid with aromatic side chains. It is a special amino acid in peptide design. Previous studies have pointed out that introducing amino acids will also bring toxicity while improving activity. Therefore, at the beginning of the design, we predicted that selecting Trp as hydrophobic amino acid to substitute H-H position would bring certain toxicity to the peptide. Thus, as expected, the introduction of Trp increases the activity and toxicity of these peptides. […] Meanwhile, the virulence of TP(i+4) 1&2&5&6 and TP(i+4) 1&2&6&7 was lower than that of TP(i+4) 1&2&5&7. We infer that the location of hydrophobic centers can effectively reduce peptide toxicity by Trp substitution. For further evaluating the cell selectivity of the peptides, we also calculated the SI which defined as the ratio of MHC to the geometric mean (GM) (Dufourc, [2008]).
# Gram-negative bacteria = experiment: Geometric mean of MIC and therapeutic index; format: cell-based; conditions: for Therapeutic index (TI), Gram-negative bacteria: MHC/GM, 128 μm used when 50% hemolysis not observed at 128 μm
# Experimental: as §1
# (§2) Trp is a hydrophobic amino acid with aromatic side chains. It is a special amino acid in peptide design. Previous studies have pointed out that introducing amino acids will also bring toxicity while improving activity. […] For further evaluating the cell selectivity of the peptides, we also calculated the SI which defined as the ratio of MHC to the geometric mean (GM) (Dufourc, [2008]).
# Gram-positive bacteria = experiment: Geometric mean of MIC and therapeutic index; format: cell-based; conditions: for Therapeutic index (TI), Gram-positive bacteria: MHC/GM, 128 μm used when 50% hemolysis not observed at 128 μm
# Experimental: as §1, §2
# [2] = tested on: Pseudomonas aeruginosa ATCC 27853
# From the text: (§3) The bacteria strains Escherichia coli ATCC 25922, Escherichia coli UB1005, Salmonella typhimurium ATCC 14028, Salmonella typhimurium C7731, Pseudomonas aeruginosa ATCC 27853, Pseudomonas aeruginosa PAO1, Staphylococcus aureus ATCC 29213, Staphylococcus aureus ATCC 25923, Methicillin-resistant Staphylococcus aureus (MRSA) 43300, Enterococcus faecalis ATCC 29212, and Staphylococcus epidermidis ATCC 12228 were obtained from the College of Veterinary Medicine, Northeast Agricultural University (Harbin, China).
# as §1
# [3] = tested on: Escherichia coli ATCC 25922
# From the text: as §3, §1
# [4] = tested on: Pseudomonas aeruginosa PAO1
# From the text: as §3, §1
# [5] = tested on: Staphylococcus aureus ATCC 29213
# From the text: as §3, §1
# [6] = tested on: Staphylococcus aureus ATCC 25923
# From the text: as §3, §1
# [7] = tested on: Enterococcus faecalis ATCC 29212
# From the text: as §3, §1
# [8] = tested on: Salmonella typhimurium ATCC 14028
# From the text: as §3, §1
# [9] = tested on: Methicillin-resistant Staphylococcus aureus (MRSA) 43300; conditions: Methicillin-resistant 43300
# From the text: as §3, §1
# [10] = tested on: Staphylococcus epidermidis ATCC 12228
# From the text: as §3, §1
# [11] = tested on: Salmonella typhimurium C7731; conditions: MHB, bacteria diluted to 2 × 10^5 CFU/ml, peptide 1-128 μm, 37°C 18-24 h, OD 492 nm; three independent assays, two in parallel
# From the text: as §3, §1
# Escherichia coli UB1005 = conditions: MHB, bacteria diluted to 2 × 10^5 CFU/ml, peptide 1-128 μm, 37°C 18-24 h, OD 492 nm; three independent assays, two in parallel
# From the text: as §3, §1
# [12] = strains of Table 2, 128 μm used when no activity at 128 μm
Substance,MHC (concentration of peptide that causes hemolysis of 50% of human red blood cells) [1],"Geometric mean (GM) of MIC, All (all strains in Table 2; all strains in Table 2, 128 μm used when no activity at 128 μm)","Geometric mean (GM) of MIC, Gram-negative bacteria (Gram-negative bacteria; [12])","Geometric mean (GM) of MIC, Gram-positive bacteria (Gram-positive bacteria; [12])","MIC, P. aeruginosa 27853 [2]","MIC, E. coli 25922 [3]","MIC, P. aeruginosa PAO1 [4]","MIC, S. aureus 29213 [5]","MIC, S. aureus 25923 [6]","MIC, E. faecalis 29212 [7]","MIC, S. typhimurium 14028 [8]","MIC, S. aureus 43300 [9]","MIC, S. epidermidis 12228 [10]","Therapeutic index (TI) / selectivity index (SI), All (all strains in Table 2)","Therapeutic index (TI), Gram-negative bacteria (Gram-negative bacteria)","Therapeutic index (TI), Gram-positive bacteria (Gram-positive bacteria)","MIC, S. typhimurium 7731 [11]","MIC, E. coli UB1005 (Escherichia coli UB1005)"
AKVVKKLTKGVAGLLK-NH2 [TP(i+4) 1&3],>128 µM,95.89 µM,71.84 µM,128.00 µM,128 µM,64 µM,64 µM,>128 µM,>128 µM,>128 µM,>128 µM,>128 µM,>128 µM,–,–,–,–,–
AKVVKKLTKGVAKLLK-NH2 [TP(i+4) 1&2&3],>128 µM,–,–,–,64 µM,32 µM,16 µM,>128 µM,>128 µM,>128 µM,128 µM,>128 µM,>128 µM,1.89,3.56,1.00,64 µM,8 µM
AKVVNKLTGGVAGLLK-NH2 [TP(i+4) 3],>128 µM,–,–,–,>128 µM,>128 µM,>128 µM,>128 µM,>128 µM,>128 µM,>128 µM,>128 µM,>128 µM,1.00,1.00,1.00,>128 µM,>128 µM
AKVVNKLTGKVAGLLK-NH2 [TP(i+4) 3&4],>128 µM,–,–,–,>128 µM,128 µM,128 µM,>128 µM,>128 µM,>128 µM,>128 µM,>128 µM,>128 µM,1.06,1.12,1.00,>128 µM,64 µM
AKVVNKLTKKVAKLLK-NH2 [TP(i+4) 2&3&4],>128 µM,–,–,–,128 µM,16 µM,8 µM,>128 µM,>128 µM,>128 µM,64 µM,>128 µM,>128 µM,2.00,4.00,1.00,64 µM,16 µM
ASVVKKLTKGVAGLLK-NH2 [TP(i+4) 1],>128 µM,–,–,–,64 µM,16 µM,64 µM,>128 µM,>128 µM,>128 µM,128 µM,>128 µM,>128 µM,1.68,2.83,1.00,64 µM,16 µM
ASVVKKLTKKVAGLLK-NH2 [TP(i+4) 1&4],>128 µM,–,–,–,32 µM,8 µM,16 µM,>128 µM,>128 µM,>128 µM,64 µM,>128 µM,>128 µM,2.56,–,1.00,32 µM,8 µM
ASVVKKLTKKVAKLLK-NH2 [TP(i+4) 1&2&4],>128 µM,–,–,–,32 µM,4 µM,8 µM,>128 µM,>128 µM,>128 µM,64 µM,>128 µM,>128 µM,2.98,8.90,1.00,32 µM,4 µM
"ASVVNKLTGGVAGLLK-NH2 [TP, reference compound]",>128 µM,–,–,–,>128 µM,>128 µM,>128 µM,>128 µM,>128 µM,>128 µM,>128 µM,>128 µM,>128 µM,1.00,1.00,1.00,>128 µM,>128 µM
ASVVNKLTGKVAGLLK-NH2 [TP(i+4) 4],>128 µM,–,–,–,64 µM,16 µM,64 µM,>128 µM,>128 µM,>128 µM,128 µM,>128 µM,>128 µM,1.68,2.83,1.00,64 µM,16 µM
ASVVNKLTKGVAKLLK-NH2 [TP(i+4) 2],>128 µM,–,–,–,64 µM,16 µM,32 µM,>128 µM,>128 µM,>128 µM,128 µM,>128 µM,>128 µM,1.89,3.56,1.00,64 µM,8 µM
